This is an account of results in PMC6927504, “Screening of House Dust from Chinese Homes for Chemicals with Liver X Receptors Binding Activities and Characterization of Atherosclerotic Activity Using an in Vitro Macrophage Cell Line and ApoE^−/− Mice” (Environmental Health Perspectives, 2019).

This data set deals with ApoE−/− mice. Briefly: Atherosclerotic lesion analysis (Oil Red O) in ApoE−/− mouse model. It is filed as in vivo. Conditions: 13 weeks, p<0.01; for Area of the atherosclerotic lesion (en face lipid staining), higher than control: high-fat diet. An excerpt: All experiments related to animals were approved by the institutional animal care and use committee of Peking University and followed the guidelines for animal experiments of the university as well as for experimental animals in China. The biological effect size of the animal experiments was based on the previous paper ([Negro Silva et al. 2017]). C57BL/6 (12 weeks old) and ApoE^−/− mice (12 weeks old) were obtained from the Beijing Vital River Laboratory Animal Technology Company. Mice used in the experiments were acclimated to the housing unit 2 weeks before they were used for experiments, and they were randomly assigned to control or TPHP treatment groups. Five animals were housed to a cage, and mice were acclimatized to the controlled environment (temperature: 22±2°C; relative humidity: 40–60%; artificial lighting: 12 h:12 h light/dark). Mice received diet and drinking water ad libitum. Body weight (BW) was measured every week during the dosing period. Forty-five C57BL/6 mice and 27 ApoE^−/− mice were used in this study. Animal protocol 1: Male C57BL/6 mice (five mice per group) were fed a basic diet (Laboratory Animal Center of the Academy of Military Medical Sciences, China). On Day 0, mice were stimulated with paraffin oil by intraperitoneal injection. From Day 1 to Day 7, mice were exposed to corn oil (control) or TPHP (dissolved in corn oil) at 40 or 200mg/kg BW by daily oral gavage. The volume of the corn oil or TPHP in corn oil administered was 5mL/kg BW. On Day 8, after the mice were anesthetized by sodium pentobarbital via intramuscular injection, peritoneal macrophages were harvested from peritoneal lavage with 4mL pre-warmed DMEM-F12 (containing 10% FBS) using a 25-gauge needle; 5–10 min later, 3–3.5mL peritoneal fluid was collected, and the cells were isolated by centrifuge at 1,000 rpm for 5 min. […] Considering that this study assessed the effects of short-term exposure to TPHP, whereas humans are exposed to TPHP over a lifelong period, the present study used exposure doses that were higher than that of human exposure from house dust. […]

Take `O=P(Oc1ccccc1)(Oc1ccccc1)Oc1ccccc1` [TPHP, triphenyl phosphate]: the “Atherosclerotic lesion area around the aortic root versus control” value (10 and 40 mg/kg BW) was “significantly higher lesion area”. The “Area of the atherosclerotic lesion (en face lipid staining), higher than control” value (10 mg/kg BW oral gavage) came to 41% and the “Area of the atherosclerotic lesion (en face lipid staining), higher than control” value (40 mg/kg BW oral gavage) is 83%.
